Results on seven compounds are retold here after publication PMC10301432, “Antiplasmodial, Trypanocidal, and Genotoxicity In Vitro Assessment of New Hybrid α,α-Difluorophenylacetamide-statin Derivatives” (Pharmaceuticals, 2023).

Where a name gives a salt, the structure may show the parent alone. Read-outs that look alike come from different tables or passages of the source. Some results are limits rather than exact numbers.

Data set [1] has as its system trypomastigote forms of T. cruzi (Y strain). The experiment in a line: Trypanocidal activity on bloodstream trypomastigotes. Format: cell-based, Trypanosoma cruzi. Conditions: for EC50: Trypanosoma cruzi, bloodstream trypomastigotes, Y strain, 24 h at 37 °C. Here is the method:
(§1) Bloodstream trypomastigote forms (BT) of the Y strain were obtained from infected albino Swiss mice at the peak of parasitemia, isolated by differential centrifugation and resuspended in DMEM to a parasite concentration of 10^7 cells/mL in the presence of 10% of mouse blood. This suspension (100 µL) was added in the same volume of 13 (a–d) and 14 (a–d) previously prepared at twice the desired final concentrations.

In data set [2] the test system is intracellular forms of T. cruzi (Tulahuen strain transfected with β-galactosidase). The experiment in a line: Activity against intracellular T. cruzi in L929 cells. Format: cell-based, Trypanosoma cruzi. The conditions noted are these: for EC50: Trypanosoma cruzi, L929, intracellular forms, Tulahuen strain, read-out: EC50; for EC50 / 10µM (% of Parasite Lysis): 96 h; for 10µM (% of Parasite Lysis): fixed concentration 10 µM. On the procedure: Tissue culture-derived trypomastigotes (Tulahuen strain expressing the E. coli β-galactosidase gene) were maintained in L929 cell lines and collected from the supernatant after 96 h of parasite infection, following previously established protocols. Briefly, after 24 h of L929 platting (4 × 10^3 cells/well), the cultures were incubated with trypomastigotes (10:1 parasite/host cell ratio) for 2 h at 37 °C. Then, the cell cultures were rinsed to remove non-internalized parasites and then further incubated for 24 h at 37 °C. Then the infected cultures were followed using two sequential protocols. […] After this period, 50 µL chlorophenol red glycoside (500 µM) in 0.5% Nonidet P40 was added to each well and the plate was incubated for more than 18 h at 37 °C, after which the absorbance was measured at 570 nm. […] Controls with untreated and Bz-treated cells are run in parallel. The results were expressed as the percent difference in the reduction between treated and untreated cells.

Another data set relates to HepG2 cells. The experiment in a line: In vitro micronuclei assay, HepG2. Format: cell-based, human. Conditions: human, 3 h. Here is the method: Fresh HepG2 and CHO-K1 cells were seeded at the density of 1 × 10^5 cells/mL into 24-well plates (1 mL/per well). The compounds 13 (a–d) were then added to the medium to final concentrations of 500, 1000 and 2000 µM and incubation continued for 3 h or 24 h. DMSO 10% was used as the negative control, and, BaP (80 µM) for HepG2 and MMC (5 µM) for CHO-K1 were the positive controls. After exposure to the compounds, the cells were incubated for more than 24 h under growth conditions before quantification of the micronuclei and cytotoxicity. The cytogenetic studies were carried out in triplicate as described previously (see [51]). In order to determine the mitotic index and the number of cells with micronuclei, the medium was replaced by a cold methanol-glacial acetic acid (3:1) fixative for 30 min, and the cells then rinsed with distilled water for 2 min and air dried. The fixed cells were stained with 4,6-diamidino-2-phenylindole (DAPI) ([…]) dissolved in McIlvaine buffer (0.1 M citric acid plus 0.2 M Na2HPO4, pH 7.0) for 60 min, washed with McIlvaine buffer for 5 min, briefly rinsed with distilled water and mounted in glycerol. To determine the mitotic index and the number of cells with micronuclei, 1000 cells per well (3000 cells per concentration) were analyzed under a fluorescence microscope. The results for micronuclei were presented as the percentage of cells containing micronuclei in the 3000 cells/concentration group analyzed. Cells that glowed brightly and had homogenous nuclei were considered as having normal phenotypic morphology. Apoptotic nuclei were identified by the condensed chromatin at the periphery of the nuclear membrane or by fragmented nuclear body morphology. Necrotic cells presented chromatin forms with irregularly shaped aggregates, a pyknotic nucleus (shrunken and darkly stained) and cell membrane disruption, with cellular debris spilled into the extracellular milieu. Once again, 3000 cells were counted and the percentage of viable cells was evaluated, discounting apoptotic and necrotic cells. Statistical differences between the groups were analyzed by two-way ANOVA (p < 0.01) and Tukey’s post hoc test.

Data set [3] relates to P. falciparum parasites (W2 clone) chloroquine-resistant. In words: Antiplasmodial activity, anti-HRPII assay. Format: cell-based, Plasmodium falciparum. Conditions: for EC50: Plasmodium falciparum, W2, 24 h; for SI: LC50 (HepG2)/EC50 (P. falciparum); for Antiplasmodial Activity: summarized outcome. From the text:
P. falciparum W2 clone was maintained in continuous culture as previously described. […] Prior to testing, the ring-stage parasites were synchronized using sorbitol.
The test quantification was read at 450 nm on a spectrophotometer (SpectraMax340PC384, Molecular Devices Sunnyvale, CA, USA), and the drug activity was expressed as the half-maximal inhibitory concentration (EC50) compared to the drug-free controls using the curve-fitting software Origin 8.0 (OriginLab Corporation, Northampton, MA, USA).

The subject of data set [4] is intracellular forms of T. cruzi (Tulahuen strain transfected with β-galactosidase). Details: method as in PMID 24590476. Conditions: read-out: EC90 value of Bz against intracellular forms of T. cruzi; cited from earlier work.
A short description of data set [5]: in vitro. Conditions: mouse. Format: cell-based. Here is the method: (§2) Cardiac cell cultures were incubated for 24 h at 37 °C with different concentrations of the compounds (up to 200 µM) diluted in DMEM (without phenol red). Their morphology and spontaneous contractibility were evaluated by light microscopy and then the cellular viability was determined by the PrestoBlue® assay. For this colorimetric bioassay, PrestoBlue® (Invitrogen, Waltham, MA, USA) was added to each well (using a 10:1 medium/dye), the plate was further incubated for 24 h followed by optical density (OD) measurement performed at 570 and 600 nm, as recommended by the manufacturer.

The nature of data set [6]: in vitro. Conditions: mouse. Format: cell-based. On the procedure:
Primary cultures of cardiac cells (CC) were obtained as reported in [50]. The cultures were sustained in Dulbecco’s modified Eagle’s medium (DMEM) supplemented with 10% horse serum, 5% fetal bovine serum (FBS), 2.5 mM CaCl2, 1 mM L-glutamine, and 2% chicken embryo extract. Cell cultures were maintained at 37 °C in an atmosphere of 5% CO2, and assays were run at least three times in triplicate.
as §2
This is another data set of the same source.

Data set [7] can be described thus: in vitro. Format: cell-based. The conditions noted are these: human. On the procedure:
Human hepatocellular carcinoma (HepG2) and Chinese Hamster Ovary (CHO-K1) cells obtained from the American Type Culture Collection (Manassas, VA, USA) were cultured in Eagle’s medium (MEM, Gibco®, Waltham, MA, USA) containing 10% fetal bovine serum (FBS) plus 100 µg/mL streptomycin and 100 µg/mL penicillin at 37 °C in a 5% CO2 atmosphere. Logarithmic-phase cells were used in all the experiments.
Fresh HepG2 and CHO-K1 cells were seeded at a density of 1 × 10^4/well. […] Briefly, after treatment, the culture medium was replaced by 90 μL fresh culture medium and 10 μL WST-1 reagent and incubated at 37 °C and 5% CO2 for 3 h. The absorbance was then measured at 440 nm according to the kit protocol.

In a further data set the test system is T. cruzi. The experiment in a line: Trypanocidal in vitro phenotypic screening, overall outcome. Format: cell-based, Trypanosoma cruzi. Conditions: summarized outcome. On the procedure:
as §1
Tissue culture-derived trypomastigotes (Tulahuen strain expressing the E. coli β-galactosidase gene) were maintained in L929 cell lines and collected from the supernatant after 96 h of parasite infection, following previously established protocols. Briefly, after 24 h of L929 platting (4 × 10^3 cells/well), the cultures were incubated with trypomastigotes (10:1 parasite/host cell ratio) for 2 h at 37 °C. Then, the cell cultures were rinsed to remove non-internalized parasites and then further incubated for 24 h at 37 °C. Then the infected cultures were followed using two sequential protocols. […] After this period, 50 µL chlorophenol red glycoside (500 µM) in 0.5% Nonidet P40 was added to each well and the plate was incubated for more than 18 h at 37 °C, after which the absorbance was measured at 570 nm. Then, the compounds were next evaluated using dose–response assays in which Tulahuen-infected-L929 cells were exposed to different non-toxic concentrations of each compound (0–50 µM) and then after 96 h of incubation the same procedure was conducted as above reported. Controls with untreated and Bz-treated cells are run in parallel. The results were expressed as the percent difference in the reduction between treated and untreated cells.

[8] abbreviates: P. falciparum W2 clone, 24 h at 37 °C, read-out: EC50.

As for `CC(C)c1c(C(=O)Nc2ccccc2)c(-c2ccccc2)c(-c2ccc(F)cc2)n1CC[C@@H](O)C[C@@H](O)CC(=O)O` [AVA, atorvastatin, reference compound], the EC50 came out at 7.07 ± 1.78 µM in data set [1], 45.3 ± 3.06 µM in data set [2] and 10.3 ± 1.2 µM in [3] (setting [8]). In addition, the “10µM (% of Parasite Lysis)” value in [2] is recorded as 31.73 ± 5.80%. Besides, in the data set with HepG2 cells, the “cytotoxicity (survival rate) in micronuclei assay” value is “significant cytotoxic effects upon 1000 µM”.
With `O=C(Cn1ccnc1[N+](=O)[O-])NCc1ccccc1` [Benznidazole, benznidazole, reference compound], the SI in data set [1] (LC50 (cardiac cells)/EC50 (trypomastigotes)) is given as greater than 77; in data set [2] (LC50 (L929)/EC50 (intracellular forms)), 92.4. The EC50 was 13 ± 2 µM in data set [1] and 1.83 ± 0.73 µM in [2]. In data set [4], the EC90 was 10 µM. The “10µM (% of Parasite Lysis)” value in [2] turned out to be 87.84 ± 7.08%. Further, the CC50 at 96 h in “in vitro [5]” is 169 ± 27.2 µM. Further, in “in vitro [6]”, the CC50 at 24 h is greater than 1000 µM.
On to `CCN(CC)CCCC(C)Nc1ccnc2cc(Cl)ccc12` (stereo not drawn) [Chloroquine, chloroquine, reference compound], for which the EC50 in [3] is 0.59 ± 0.03 µM.
Turning to `CC(=O)Nc1ccccc1C(F)(F)C(=O)NCC[C@@H](O)C[C@@H](O)CC(=O)O` [Compound 14a, Sodium (3R,5R)-7-(2-(2-acetamido-phenyl)-2,2-difluoroacetamide)-3,5-dihydroxyheptanoate salt], the figures for the CC50 at 24 h in “in vitro [7]” and in the data set “in vitro [6]” were greater than 488 µM and greater than 500 µM, respectively. Moreover, the EC50 in data set [1] is greater than 500 µM; in [3] (setting [8]), greater than 122 µM. Also, the “Trypanocidal Activity” value with T. cruzi is “No”. In addition, the SI result in data set [3] is “Inactive”. Also, the “Antiplasmodial Activity” value in data set [3] is “No”.
As for `CC(=O)Nc1ccc(C)cc1C(F)(F)C(=O)NCC[C@@H](O)C[C@@H](O)CC(=O)O` [Compound 14b, Sodium (3R,5R)-7-(2-(2-acetamido-5-methylphenyl)-2,2-difluoroacetamide)-3,5-dihydroxyheptanoate salt], the values for the CC50 at 24 h in the data set “in vitro [7]” and in the data set “in vitro [6]” were greater than 472 µM and greater than 500 µM, respectively. Further, the EC50 in data set [1] is greater than 500 µM; in data set [3] (setting [8]) it was greater than 118 µM. The “Trypanocidal Activity” value in the data set with T. cruzi is on record as “No”. Further, the SI entry in data set [3] is reported as “Inactive”. The “Antiplasmodial Activity” value in data set [3] is “No”.
Turning to `CC(=O)Nc1ccc(Cl)cc1C(F)(F)C(=O)NCC[C@@H](O)C[C@@H](O)CC(=O)O` [Compound 14c, Sodium (3R,5R)-7-(2-(2-acetamido-5-chlorophenyl)-2,2-difluoroacetamide)-3,5-dihydroxyheptanoate salt], the results for the CC50 at 24 h in “in vitro [7]” and in “in vitro [6]” were greater than 450 µM and greater than 500 µM, respectively. Moreover, the results for the EC50 in [1] and in [3] (setting [8]) were greater than 500 µM and greater than 112 µM, respectively. Further, in the data set on T. cruzi, the “Trypanocidal Activity” value is recorded as “No”. The SI entry in data set [3] is reported as “Inactive”. For the same compound, the “Antiplasmodial Activity” value in data set [3] is recorded as “No”.
As for `CC(=O)Nc1ccc(Br)cc1C(F)(F)C(=O)NCC[C@@H](O)C[C@@H](O)CC(=O)O` [Compound 14d, Sodium (3R,5R)-7-(2-(2-acetamido-5-bromophenyl)-2,2-difluoroacetamide)-3,5-dihydroxyheptanoate salt], the CC50 at 24 h in the data set “in vitro [7]” was greater than 409 µM; in the data set “in vitro [6]”, greater than 500 µM. In addition, the EC50 was greater than 500 µM in data set [1] and greater than 102 µM in data set [3] (setting [8]). Besides, the “Trypanocidal Activity” value with T. cruzi is “No”. Further, the SI entry in data set [3] is reported as “Inactive”. In [3], the “Antiplasmodial Activity” value was “No”.

As usually defined, the EC50 is the midpoint of the concentration-response curve. Broadly, the EC90 is the concentration needed for an effect of 90%. What is called CC50 is the concentration at which the toxic effect on the cells reaches its halfway point. Lower therefore signals greater toxicity to the cells.
